Assay results taken from ChEMBL document CHEMBL4359906, “Design and synthesis of new N-terminal fatty acid modified-antimicrobial peptide analogues with potent in vitro biological activity” (Eur J Med Chem, 2019).
Values after ≈ are worked out from the molar mass of the structure shown. Active and inactive are the calls of the source. The calls are words filed in the database; no cut-off is given here.

Columns and labels:
Escherichia coli [1] = assay: Antibiofilm activity against Escherichia coli ATCC 25922 at 2 times MIC after 24 hrs by crystal violet staining based assay; type: functional, organism-based
Staphylococcus aureus [2] = assay: Ratio of antibacterial activity against Staphylococcus aureus ATCC 25923 in presence of KCl to antibacterial activity against Staphylococcus aureus ATCC 25923; type: functional
Staphylococcus aureus [3] = assay: Ratio of antibacterial activity against Staphylococcus aureus ATCC 25923 in presence of MgCl2 to antibacterial activity against Staphylococcus aureus ATCC 25923; type: functional
Escherichia coli [4] = assay: Disruption of membrane integrity in Escherichia coli ATCC 25922 assessed as membrane damage by measuring PI fluorescence at 4 times of MIC incubated for 1 hr by PI dye based flow cytometric analysis (reference value: 1.35%); type: functional
Klebsiella pneumoniae [5] = assay: Potentiation of polymyxin B-induced antibacterial activity against Klebsiella pneumoniae ATCC 700603 assessed as FICI after 18 hrs by checker board assay; type: functional
Escherichia coli [6] = assay: Ratio of antibacterial activity against Escherichia coli ATCC 25922 in presence of MgCl2 to antibacterial activity against Escherichia coli ATCC 25922; type: functional
Staphylococcus aureus [7] = assay: Antibacterial activity against methicillin-resistant Staphylococcus aureus 936 after 18 hrs by CLSI based broth microdilution method; type: functional; details: Staphylococcus aureus, 936, 18 h
Escherichia coli [8] = assay: Potentiation of rifampicin-induced antibacterial activity against Escherichia coli ATCC 25922 assessed as FICI after 18 hrs by checker board assay; type: functional
Pseudomonas aeruginosa [9] = assay: Antibacterial activity against Pseudomonas aeruginosa ATCC 27853 after 18 hrs by CLSI based broth microdilution method; type: functional; details: ATCC 27853, 18 h
Escherichia coli [10] = assay: Induction of membrane disruption in Escherichia coli ATCC 25922 assessed as rough membrane surface at 4 times of MIC after 2 hrs by SEM analysis; type: functional, organism-based
Bacillus subtilis = assay: Antibacterial activity against Bacillus subtilis ATCC 23857 after 18 hrs by CLSI based broth microdilution method; type: functional; details: ATCC 23857, 18 h
Staphylococcus aureus [11] = assay: Ratio of antibacterial activity against Staphylococcus aureus ATCC 25923 in presence of NaCl to antibacterial activity against Staphylococcus aureus ATCC 25923; type: functional
Escherichia coli [12] = assay: Induction of ROS generation in Escherichia coli ATCC 25922; type: functional, organism-based
Staphylococcus aureus [13] = assay: Antibacterial activity against Staphylococcus aureus ATCC 25923 after 18 hrs by CLSI based broth microdilution method; type: functional; details: ATCC 25923, 18 h
Staphylococcus aureus [14] = assay: Antibiofilm activity against Staphylococcus aureus ATCC 25923 after 24 hrs by crystal violet staining based assay; type: functional, organism-based
Escherichia coli [15] = assay: Antimicrobial activity against Escherichia coli ATCC 25922 at 1 mM preincubated for 6 hrs in presence of 2 ug/ml chymotrypsin and measured after 18 hrs by microplate reader analysis; type: functional, organism-based
Escherichia coli [16] = assay: Antibacterial activity against Escherichia coli ATCC 25922 at 0.5 times MIC incubated for 18 hrs measured for 15 passages by CLSI based broth microdilution method; type: functional, organism-based
Pseudomonas aeruginosa [17] = assay: Potentiation of rifampicin-induced antibacterial activity against Pseudomonas aeruginosa ATCC 27853 assessed as FICI after 18 hrs by checker board assay; type: functional
Escherichia coli [18] = assay: Ratio of antibacterial activity against Escherichia coli ATCC 25922 in presence of FeCl3 to antibacterial activity against Escherichia coli ATCC 25922; type: functional
Escherichia coli [19] = assay: Antimicrobial activity against Escherichia coli ATCC 25922 at 1 mM preincubated for 6 hrs in presence of 2000 ug/ml trypsin and measured after 18 hrs by microplate reader analysis; type: functional, organism-based
Escherichia coli [20] = assay: Antibacterial activity against Escherichia coli ATCC 25922 after 18 hrs by CLSI based broth microdilution method; type: functional; details: ATCC 25922, 18 h
Escherichia coli [21] = assay: Antibiofilm activity against Escherichia coli ATCC 25922 after 24 hrs by crystal violet staining based assay; type: functional, organism-based
Escherichia coli [22] = assay: Antibacterial activity against Escherichia coli ATCC 43837 after 18 hrs by CLSI based broth microdilution method; type: functional; details: ATCC 43837, 18 h
Escherichia coli [23] = assay: Induction of outer membrane permeabilization in Escherichia coli ATCC 25922 measured up to 12 mins by NPN-dye based assay; type: organism-based
Escherichia coli [24] = assay: Ratio of antibacterial activity against Escherichia coli ATCC 25922 in presence of NaCl to antibacterial activity against Escherichia coli ATCC 25922; type: functional
Klebsiella pneumoniae [25] = assay: Antibacterial activity against Klebsiella pneumoniae ATCC 700603 after 18 hrs by CLSI based broth microdilution method; type: functional; details: Klebsiella pneumoniae, 700603, 18 h
Pseudomonas aeruginosa [26] = assay: Potentiation of polymyxin B-induced antibacterial activity against Pseudomonas aeruginosa ATCC 27853 assessed as FICI after 18 hrs by checker board assay; type: functional
Escherichia coli [27] = assay: Ratio of MIC for Escherichia coli ATCC 25922 preincubated for 6 hrs in presence of 10% mouse serum and measured after 18 hrs to MIC for antibacterial activity against Escherichia coli ATCC 25922 after 18 hrs; type: functional
Klebsiella pneumoniae [28] = assay: Potentiation of rifampicin-induced antibacterial activity against Klebsiella pneumoniae ATCC 700603 assessed as FICI after 18 hrs by checker board assay; type: functional
Escherichia coli [29] = assay: Disruption of membrane integrity in Escherichia coli ATCC 25922 assessed as membrane damage by measuring PI fluorescence incubated for 1 hr by PI dye based flow cytometric analysis; type: functional, organism-based
Pseudomonas aeruginosa [30] = assay: Antibiofilm activity against Pseudomonas aeruginosa ATCC 27853 after 24 hrs by crystal violet staining based assay; type: functional, organism-based
Escherichia coli [31] = assay: Disruption of membrane integrity in Escherichia coli ATCC 25922 assessed as membrane damage by measuring PI fluorescence at 2 times of MIC incubated for 1 hr by PI dye based flow cytometric analysis (reference value: 1.35%); type: functional
Escherichia coli [32] = assay: Ratio of antibacterial activity against Escherichia coli ATCC 25922 in presence of KCl to antibacterial activity against Escherichia coli ATCC 25922; type: functional
Escherichia coli [33] = assay: Induction of membrane disruption in Escherichia coli ATCC 25922 assessed as degeneration in membrane at 4 times of MIC after 2 hrs by SEM analysis; type: functional, organism-based
Escherichia coli [34] = assay: Potentiation of polymyxin B-induced antibacterial activity against Escherichia coli ATCC 25922 assessed as FICI after 18 hrs by checker board assay; type: functional
Escherichia coli [35] = assay: Induction of membrane disruption in Escherichia coli ATCC 25922 assessed as fracture in membrane at 4 times of MIC after 2 hrs by SEM analysis; type: functional, organism-based
Escherichia coli [36] = assay: Ratio of MIC for Escherichia coli ATCC 25922 preincubated for 1 hr in presence of 10% mouse serum and measured after 18 hrs to MIC for antibacterial activity against Escherichia coli ATCC 25922 after 18 hrs; type: functional
Escherichia coli [37] = assay: Induction of inner membrane permeabilization in Escherichia coli ATCC 43837 assessed as increase in ONPG release at 4 times of MIC by ONPG dye based assay; type: organism-based
Pseudomonas aeruginosa [38] = assay: Antibiofilm activity against Pseudomonas aeruginosa ATCC 27853 at 0.25 to 2 times of MIC after 24 hrs by crystal violet staining based assay; type: functional, organism-based
Escherichia coli [39] = assay: Induction of inner membrane permeabilization in Escherichia coli ATCC 43837 assessed as increase in ONPG release at 1 to 2 times of MIC by ONPG dye based assay; type: organism-based

| SMILES | inhibition (Escherichia coli [1]) | Ratio (Staphylococcus aureus [2]) | Ratio (Staphylococcus aureus [3]) | Activity (Escherichia coli [4]) [%] | fractional inhibitory concentration index (FICI) (Klebsiella pneumoniae [5]) | Ratio (Escherichia coli [6]) | MIC (Staphylococcus aureus [7]) [µM] | fractional inhibitory concentration index (FICI) (Escherichia coli [8]) | MIC (Pseudomonas aeruginosa [9]) [µM] | Activity (Escherichia coli [10]) | MIC (Bacillus subtilis) [µM] | Ratio (Staphylococcus aureus [11]) | Activity (Escherichia coli [12]) | MIC (Staphylococcus aureus [13]) [µM] | inhibition (Staphylococcus aureus [14]) | Activity (Escherichia coli [15]) | Activity (Escherichia coli [16]) | fractional inhibitory concentration index (FICI) (Pseudomonas aeruginosa [17]) | Ratio (Escherichia coli [18]) | Activity (Escherichia coli [19]) | other results |
| --- | --- | --- | --- | --- | --- | --- | --- | --- | --- | --- | --- | --- | --- | --- | --- | --- | --- | --- | --- | --- | --- |
| CCCCCCCCCC(=O)NCC(=O)N[C@@H](CC(C)C)C(=O)N[C@@H](CC(C)C)C(=O)N[C@H](CCCCN)C(=O)N[C@@H](CCCNC(=N)N)C(=O)N[C@H](C(=O)N[C@H](CCCCN)C(=O)N[C@H](C(=O)N[C@@H](CC(C)C)C(=O)N[C@@H](CC(C)C)C(N)=O)[C@@H](C)O)[C@@H](C)CC | inactive | 2 - 4 | 2 - 4 | 75.9 | 0.3125 | 2 - 4 | 8 (≈ 10.5 µg/mL) | 0.1875 | 8 (≈ 10.5 µg/mL) | Active | 8 (≈ 10.5 µg/mL) | 2 - 4 | inactive | 8 (≈ 10.5 µg/mL) | Dose-dependent effect | Active | Active | 0.3125 | 2 - 4 | Active | MIC (Escherichia coli [20]): 16 µM (≈ 20.9 µg/mL); inhibition (Escherichia coli [21]): Dose-dependent effect; MIC (Escherichia coli [22]): 8 µM (≈ 10.5 µg/mL); Activity (Escherichia coli [23]): Dose-dependent effect; Ratio (Escherichia coli [24]): 2 - 4; MIC (Klebsiella pneumoniae [25]): 16 µM (≈ 20.9 µg/mL); fractional inhibitory concentration index (FICI) (Pseudomonas aeruginosa [26]): 0.125; Ratio (Escherichia coli [27]): 1; fractional inhibitory concentration index (FICI) (Klebsiella pneumoniae [28]): 0.3125; Activity (Escherichia coli [29]): Dose-dependent effect; inhibition (Pseudomonas aeruginosa [30]): Dose-dependent effect; Activity (Escherichia coli [31]): 49.6%; Ratio (Escherichia coli [32]): 2 - 4; Activity (Escherichia coli [33]): Active; fractional inhibitory concentration index (FICI) (Escherichia coli [34]): 0.3125; Activity (Escherichia coli [35]): Active; Ratio (Escherichia coli [36]): 1; Activity (Escherichia coli [37]): Active |
| CCCCCCCC(=O)NCC(=O)N[C@@H](CC(C)C)C(=O)N[C@@H](CC(C)C)C(=O)N[C@H](CCCCN)C(=O)N[C@@H](CCCNC(=N)N)C(=O)N[C@H](C(=O)N[C@H](CCCCN)C(=O)N[C@H](C(=O)N[C@@H](CC(C)C)C(=O)N[C@@H](CC(C)C)C(N)=O)[C@@H](C)O)[C@@H](C)CC | Active | 2 - 4 | 2 - 4 | 70.8 | 0.0625 | 2 - 4 | 64 (≈ 81.9 µg/mL) | 0.0625 | 8 (≈ 10.2 µg/mL) | Active | 4 (≈ 5.12 µg/mL) | 2 - 4 | inactive | 32 (≈ 41 µg/mL) | Dose-dependent effect | Active | Active | 0.75 | 2 - 4 | Active | inhibition (Pseudomonas aeruginosa [38]): Active; MIC (Escherichia coli [20]): 64 µM (≈ 81.9 µg/mL); inhibition (Escherichia coli [21]): Dose-dependent effect; MIC (Escherichia coli [22]): 32 µM (≈ 41 µg/mL); Activity (Escherichia coli [23]): Dose-dependent effect; Ratio (Escherichia coli [24]): 2 - 4; MIC (Klebsiella pneumoniae [25]): 64 µM (≈ 81.9 µg/mL); fractional inhibitory concentration index (FICI) (Pseudomonas aeruginosa [26]): 0.1875; Ratio (Escherichia coli [27]): 1; fractional inhibitory concentration index (FICI) (Klebsiella pneumoniae [28]): 0.0625; Activity (Escherichia coli [29]): Dose-dependent effect; inhibition (Pseudomonas aeruginosa [30]): Dose-dependent effect; Activity (Escherichia coli [31]): 64.6%; Ratio (Escherichia coli [32]): 2 - 4; Activity (Escherichia coli [33]): Active; fractional inhibitory concentration index (FICI) (Escherichia coli [34]): 0.1875; Activity (Escherichia coli [35]): Active; Ratio (Escherichia coli [36]): 1; Activity (Escherichia coli [37]): Active |
| CCCCCCCCCCCC(=O)NCC(=O)N[C@@H](CC(C)C)C(=O)N[C@@H](CC(C)C)C(=O)N[C@H](CCCCN)C(=O)N[C@@H](CCCNC(=N)N)C(=O)N[C@H](C(=O)N[C@H](CCCCN)C(=O)N[C@H](C(=O)N[C@@H](CC(C)C)C(=O)N[C@@H](CC(C)C)C(N)=O)[C@@H](C)O)[C@@H](C)CC | Active | 2 - 4 | 2 - 4 | 94.7 | 0.3125 | 2 - 4 | 16 (≈ 21.4 µg/mL) | 0.5625 | 16 (≈ 21.4 µg/mL) | Active | 2 (≈ 2.67 µg/mL) | 2 - 4 | inactive | 4 (≈ 5.34 µg/mL) | Dose-dependent effect | Active | Active | 0.3125 | 2 - 4 | Active | MIC (Escherichia coli [20]): 16 µM (≈ 21.4 µg/mL); inhibition (Escherichia coli [21]): Dose-dependent effect; MIC (Escherichia coli [22]): 16 µM (≈ 21.4 µg/mL); Activity (Escherichia coli [39]): Active; Activity (Escherichia coli [23]): Dose-dependent effect; Ratio (Escherichia coli [24]): 2 - 4; MIC (Klebsiella pneumoniae [25]): 8 µM (≈ 10.7 µg/mL); fractional inhibitory concentration index (FICI) (Pseudomonas aeruginosa [26]): 0.1875; Ratio (Escherichia coli [27]): 2; fractional inhibitory concentration index (FICI) (Klebsiella pneumoniae [28]): 0.5625; Activity (Escherichia coli [29]): Dose-dependent effect; inhibition (Pseudomonas aeruginosa [30]): Dose-dependent effect; Activity (Escherichia coli [31]): 60.8%; Ratio (Escherichia coli [32]): 2 - 4; Activity (Escherichia coli [33]): Active; fractional inhibitory concentration index (FICI) (Escherichia coli [34]): 0.1875; Activity (Escherichia coli [35]): Active; Ratio (Escherichia coli [36]): 1; Activity (Escherichia coli [37]): Active |
